From ChEMBL document CHEMBL1201862, “PubChem BioAssay data set” (2004)
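Where inhibition never reached the appropriate level, the endpoint shown equals the highest concentration tested. Otherwise, values were interpolated linearly from a five-concentration, 48-hour dose response in 96-well plates. GI50 is the concentration that inhibits growth by half.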 Calls of active or inactive are those of the source. No stated cut-off is given here; in the data, active = GI50 up to about 1.1 µM and inactive = higher.

Tests used:
Test in all cases: growth of human tumour cells (NCI), 48 h
HCC 2998 = system: HCC 2998
HCT-15 = system: HCT-15
HT-29 = system: HT-29
K562 = system: K562
KM-20L2 = system: KM-20L2
M14 = system: M14
Malme-3M = system: Malme-3M
NCI-H522 = system: NCI-H522
OVCAR-5 = system: OVCAR-5
OVCAR-8 = system: OVCAR-8
SF-268 = system: SF-268
SF-295 = system: SF-295
SK-MEL-28 = system: SK-MEL-28
SK-MEL-2 = system: SK-MEL-2
SK-MEL-5 = system: SK-MEL-5
SK-OV-3 = system: SK-OV-3
UACC-62 = system: UACC-62
DU-145 = system: DU-145
Hs-578T = system: Hs-578T
NCI/ADR-RES = system: NCI/ADR-RES

Structure (SMILES) | GI50 (HCC 2998) | GI50 (HCT-15) | GI50 (HT-29) | GI50 (K562) | GI50 (KM-20L2) | GI50 (M14) | GI50 (Malme-3M) | GI50 (NCI-H522) | GI50 (OVCAR-5) | GI50 (OVCAR-8) | GI50 (SF-268) | GI50 (SF-295) | GI50 (SK-MEL-28) | GI50 (SK-MEL-2) | GI50 (SK-MEL-5) | GI50 (SK-OV-3) | GI50 (UACC-62) | GI50 (DU-145) | GI50 (Hs-578T) | GI50 (NCI/ADR-RES)
O=S1(=O)[C@H](c2ccccc2)c2c(-c3ccccc3)sc(-c3ccccc3)c2[C@@H]1c1ccccc1 | > 100 µM (inactive) | > 100 µM | > 100 µM (inactive) | > 100 µM (inactive) | > 100 µM (inactive) | > 100 µM (inactive) | 94.2 µM (inactive) | 13 µM (inactive) | 3.81 µM (inactive) | > 100 µM (inactive) | > 100 µM (inactive) | > 100 µM (inactive) | > 100 µM (inactive) | > 100 µM (inactive) | 71.9 µM (inactive) | > 100 µM (inactive) | > 100 µM (inactive) |  |  | 
Cc1ccc(NC(=O)C(=O)C(C(=O)c2ccc3ccccc3c2)C2OC(=O)c3ccccc32)c(C)c1 (stereo unspecified) | 8.99 µM (inactive) | 14.3 µM | 25.7 µM (inactive) | 10.4 µM (inactive) | 24.4 µM (inactive) | 14.7 µM (inactive) | 8.99 µM (inactive) | 12.8 µM (inactive) | 16.3 µM (inactive) | 7.67 µM (inactive) | 3.68 µM (inactive) |  | 5.69 µM (inactive) | 13 µM (inactive) | 11.1 µM (inactive) | 12.5 µM (inactive) | 4.54 µM (inactive) |  |  | 
CCOC(=O)C1=C(C)N(Cc2ccccc2)C2(O)C=CC(=O)C3C(=O)N(c4ccccc4)C(=O)C132 (stereo unspecified) | 1.67 µM (inactive) | 1.79 µM | 1.7 µM (inactive) | 3.66 µM (inactive) |  | 1.81 µM (inactive) | 2.81 µM (inactive) | 1.57 µM (inactive) | 3.43 µM (inactive) | 1.23 µM (inactive) | 2.54 µM (inactive) | 3.58 µM (inactive) | 1.82 µM (inactive) | 1.98 µM (inactive) | 3.57 µM (inactive) | 6.75 µM (inactive) | 1.71 µM (inactive) | 2.15 µM (inactive) | 5.4 µM (inactive) | 2.75 µM (inactive)
COc1cc(C(=O)C/C(CCCC(=O)Nc2ccccc2[N+](=O)[O-])=N/NC(=O)c2cc3ccccc3cc2O)ccc1O | 28.9 µM (inactive) | 20.2 µM | 41.9 µM (inactive) | 20.2 µM (inactive) | 27.4 µM (inactive) | 20.8 µM (inactive) | 29.2 µM (inactive) | 36.6 µM (inactive) | 46.3 µM (inactive) | 26.8 µM (inactive) | 23.8 µM (inactive) | 44.4 µM (inactive) | 58.2 µM (inactive) | > 42.7 µM (inactive) | 34.4 µM (inactive) | 49.7 µM (inactive) | 17.6 µM (inactive) |  |  | 
O=C(c1ccc(Cl)cc1)c1ccc(OCCSCCCCCCCCCCSCCOc2ccc(C(=O)c3ccc(Cl)cc3)cc2)cc1 | > 100 µM (inactive) | > 100 µM | > 100 µM (inactive) | > 100 µM (inactive) | > 100 µM (inactive) |  | > 100 µM (inactive) | > 100 µM (inactive) | > 100 µM (inactive) | > 100 µM (inactive) | > 100 µM (inactive) | 91.8 µM (inactive) | > 100 µM (inactive) | > 100 µM (inactive) | > 100 µM (inactive) | > 100 µM (inactive) | > 100 µM (inactive) |  |  | 
O=C(O)c1ccc(Nc2nc3ccc(C(F)(F)F)cc3nc2C(=O)O)cc1 | > 100 µM (inactive) | > 100 µM | > 100 µM (inactive) | > 100 µM (inactive) |  | > 100 µM (inactive) | > 100 µM (inactive) | > 100 µM (inactive) | > 100 µM (inactive) | > 100 µM (inactive) | > 100 µM (inactive) | > 100 µM (inactive) | > 100 µM (inactive) | > 100 µM (inactive) | > 100 µM (inactive) | > 100 µM (inactive) | > 100 µM (inactive) | > 100 µM (inactive) | > 100 µM (inactive) | > 100 µM (inactive)
COc1cccc(/C=N\NC(=O)C(C)SC(C)C(=O)N/N=C/c2cccc(OC)c2)c1 (stereo unspecified) | 18.5 µM (inactive) | > 100 µM | > 66.8 µM (inactive) | > 78.3 µM (inactive) | 47 µM (inactive) | 72.9 µM (inactive) | 42 µM (inactive) | 22.3 µM (inactive) | 53.8 µM (inactive) | 28.4 µM (inactive) | 33.4 µM (inactive) | 32.2 µM (inactive) | 36.6 µM (inactive) | 39.2 µM (inactive) | 56.1 µM (inactive) | 18.1 µM (inactive) | > 54.2 µM (inactive) |  |  | 
CCOC(=O)c1cccc(=O)c(C(=O)OCC)c1 | > 100 µM (inactive) | 40.3 µM | 58.2 µM (inactive) | 36.1 µM (inactive) | 97.3 µM (inactive) | 81.3 µM (inactive) | 66.1 µM (inactive) |  | > 100 µM (inactive) | 43.4 µM (inactive) |  | 2.38 µM (inactive) | 38.6 µM (inactive) | 47 µM (inactive) | 47.8 µM (inactive) | > 100 µM (inactive) | 34 µM (inactive) |  |  | 
CCCCc1c2c(nc3c1CC/C(=C\c1ccc([N+](=O)[O-])cc1)C3=O)CCCC2 | 1.78 µM (inactive) | 0.312 µM | 1.33 µM (inactive) | 2.17 µM (inactive) | 2.01 µM (inactive) | 1.85 µM (inactive) | 2 µM (inactive) | 1.51 µM (inactive) |  | 1.88 µM (inactive) | 1.98 µM (inactive) | 2.1 µM (inactive) | 1.69 µM (inactive) |  |  | 2.15 µM (inactive) | 1.61 µM (inactive) |  |  | 
CC(C)(C)c1cc(C#N)c2c(c1)C(=O)OC2(c1ccccc1)c1ccccc1C#N (stereo unspecified) |  | 29.5 µM | > 100 µM (inactive) | 45.4 µM (inactive) | > 100 µM (inactive) | > 100 µM (inactive) | > 100 µM (inactive) | 12.3 µM (inactive) | > 100 µM (inactive) | > 100 µM (inactive) | > 100 µM (inactive) | 78.3 µM (inactive) | > 100 µM (inactive) | > 100 µM (inactive) |  | > 100 µM (inactive) | > 100 µM (inactive) |  |  | 
COc1cc(Oc2c(O)c(C)c(OC)c(C(C)=O)c2O)c(C(C)=O)c(O)c1C | 59 µM (inactive) | 47.6 µM | 71.8 µM (inactive) |  | 63.8 µM (inactive) | 64.3 µM (inactive) | 42.8 µM (inactive) | 12.9 µM (inactive) | 98.2 µM (inactive) | 51.6 µM (inactive) | 66.4 µM (inactive) | > 100 µM (inactive) | 50.6 µM (inactive) |  | 35.2 µM (inactive) | > 100 µM (inactive) | 40.5 µM (inactive) |  |  | 
O=C(NC1CCCCC1)c1c(O)[nH]c(=S)[nH]c1=O |  | > 100 µM | > 100 µM (inactive) |  | > 100 µM (inactive) | > 100 µM (inactive) | > 100 µM (inactive) | > 100 µM (inactive) | > 100 µM (inactive) | 89.7 µM (inactive) | > 100 µM (inactive) | 99.3 µM (inactive) | > 100 µM (inactive) | > 100 µM (inactive) | > 100 µM (inactive) | > 100 µM (inactive) | > 100 µM (inactive) |  |  | 
COc1ccc(C(c2c(O)c3ccccc3n(C)c2=O)c2c(O)c3ccccc3n(C)c2=O)cc1 | 40.2 µM (inactive) | > 10 µM | 24.3 µM (inactive) | 27.9 µM (inactive) | 21.3 µM (inactive) | 34.9 µM (inactive) | 47.2 µM (inactive) | 9.77 µM (inactive) | 32.3 µM (inactive) | 81.1 µM (inactive) | 34.1 µM (inactive) | 36.5 µM (inactive) | 39.2 µM (inactive) | > 100 µM (inactive) | 20.2 µM (inactive) | 58.3 µM (inactive) | 13.2 µM (inactive) |  |  | 
COc1cc(C(=O)C/C(CCC(=O)Nc2ccc(Cl)cc2C)=N/NC(=O)C(N)=O)ccc1O | > 100 µM (inactive) | > 100 µM | > 100 µM (inactive) | > 100 µM (inactive) | > 100 µM (inactive) | > 100 µM (inactive) | > 100 µM (inactive) | > 100 µM (inactive) | > 100 µM (inactive) | > 100 µM (inactive) | > 100 µM (inactive) | > 100 µM (inactive) |  | > 100 µM (inactive) | > 100 µM (inactive) | 65.3 µM (inactive) | > 100 µM (inactive) |  |  | 
CCOc1ccc2c(c1)[n+]([O-])c(-c1ccc([N+](=O)[O-])cc1)c(N)[n+]2[O-] |  |  | > 100 µM (inactive) | > 100 µM (inactive) | > 100 µM (inactive) | > 100 µM (inactive) | > 100 µM (inactive) | 56.4 µM (inactive) | > 100 µM (inactive) | > 100 µM (inactive) | > 100 µM (inactive) | > 100 µM (inactive) | > 100 µM (inactive) | > 100 µM (inactive) | > 100 µM (inactive) | > 100 µM (inactive) |  |  |  | 
CNC(=O)OCc1cc2ccncc2c2c1[nH]c1ccccc12 | > 58.5 µM (inactive) | > 23.8 µM | > 25.5 µM (inactive) | 17.9 µM (inactive) | > 100 µM (inactive) | > 100 µM (inactive) | > 100 µM (inactive) | 20.7 µM (inactive) | > 77.6 µM (inactive) | 11.5 µM (inactive) |  | > 100 µM (inactive) | > 100 µM (inactive) | > 100 µM (inactive) | > 100 µM (inactive) |  | > 100 µM (inactive) |  |  | 
COc1ccc(-c2oc3c(OC)c(OC)c(OC)c(OC)c3c(=O)c2OC)cc1OC [3,5,6,7,8,3',4'-HEPTAMETHOXYFLAVONE] | 63.8 µM (inactive) | 35.9 µM | 26.5 µM (inactive) | 31.5 µM (inactive) |  | 41.4 µM (inactive) | 28 µM (inactive) | 19.4 µM (inactive) | > 100 µM (inactive) | 23.6 µM (inactive) | 5.45 µM (inactive) | 32 µM (inactive) | 66.7 µM (inactive) | 29.6 µM (inactive) | 19.3 µM (inactive) | > 100 µM (inactive) | 48.3 µM (inactive) | 55.1 µM (inactive) | 20.9 µM (inactive) | 20.3 µM (inactive)
